Data as given in patent publication US7592329B2, “Crystalline complexes of fluticasone-2-furoate” (Glaxo Group Limited, priority 2003, dated 2009).
Entries after “also recorded” stand apart in the source; their conditions may differ.

Assays:
[1] = tested on: thymus involution; experiment: Rat model of thymus involution; type: in vivo; conditions: 3 daily IT doses of 100 μg
[2] = Pharmacokinetics after intravenous administration in the anaesthetised pig; type: in vivo; conditions: IV mixture of the two compounds at 0.1 mg/kg
Source text: The clearance of these two glucocorticoids is similar is this experimental pig model.

[3] = Pharmacokinetics after intra-tracheal dry powder dosing in the pig; type: in vivo; conditions: for time after dosing up to which quantifiable in plasma: anaesthetised pigs, 1 mg intra-tracheal, LLOQ 10 pg/mL compound (I), 20 pg/mL fluticasone propionate
Method: Serial blood samples were taken for up to 8 h following dosing.

[4] = tested on: human hepatocytes; experiment: In vitro metabolism in human hepatocytes; type: in vitro ADME; conditions: 17-β carboxylic acid (X) the only significant metabolite
[5] = tested on: human lung tissue; experiment: In vitro human lung tissue affinity experiments; type: in vitro ADME
[6] = Pharmacokinetics after intravenous (IV) and oral dosing in rats; type: in vivo, male Wistar Han rats; conditions: rat
[7] = tested on: rat hepatocytes; experiment: In vitro metabolism in rat hepatocytes; type: in vitro ADME; conditions: 17-β carboxylic acid (X) the only significant metabolite
[8] = Lung absorption (mean absorption time) in man; type: in vivo; conditions: average; for time taken for 90% of lung dose to be absorbed: mathematical deconvolution of plasma concentration time data
[9] = tested on: human bronchial epithelial cells; experiment: Cell transport and accumulation studies using human bronchial epithelial cells; type: in vitro ADME
[10] = target: glucocorticoid receptor (GR) (Homo sapiens, UniProt P04150); experiment: Transactivation (GR) renilla luciferase reporter assay in A549 cells; type: cell-based; conditions: GRE renilla luciferase reporter, read-out: Transactivation (GR) ED50
Source text: The glucocorticoid receptor (GR) can function in at least two distinct mechanisms, by upregulating gene expression through the direct binding of GR to specific sequences in gene promotors, and by downregulating gene expression that is being driven by other transcription factors (such as NFκB or AP-1) through their direct interaction with GR.
The first cell line contains the firefly luciferase reporter gene under the control of a synthetic promoter that specifically responds to activation of the transcription factor NFκB when stimulated with TNFα. The second cell line contains the renilla luciferase reporter gene under the control of a synthetic promotor that comprises 3 copies of the consensus glucocorticoid response element, and which responds to direct stimulation by glucocorticoids. Simultaneous measurement of transactivation and transrepression was conducted by mixing the two cell lines in a 1:1 ratio in 96 well plate (40,000 cells per well) and growing overnight at 37° C. Test compounds were dissolved in DMSO, and added to the cells at a final DMSO concentration of 0.7%. After incubation for 1 h 0.5 ng/ml TNFα (R&D Systems) was added and after a further 15 hours at 37° C., the levels of firefly and renilla luciferase were measured using the Packard Firelite kit following the manufacturers' directions. Dose response curves were constructed from which EC50 values were determined.

[11] = target: T1, glucocorticoid receptor (Homo sapiens, UniProt P04150); experiment: In vitro functional glucocorticoid assays, metabolite versus parent; type: cell-based
T1 sequence (P04150 1-777): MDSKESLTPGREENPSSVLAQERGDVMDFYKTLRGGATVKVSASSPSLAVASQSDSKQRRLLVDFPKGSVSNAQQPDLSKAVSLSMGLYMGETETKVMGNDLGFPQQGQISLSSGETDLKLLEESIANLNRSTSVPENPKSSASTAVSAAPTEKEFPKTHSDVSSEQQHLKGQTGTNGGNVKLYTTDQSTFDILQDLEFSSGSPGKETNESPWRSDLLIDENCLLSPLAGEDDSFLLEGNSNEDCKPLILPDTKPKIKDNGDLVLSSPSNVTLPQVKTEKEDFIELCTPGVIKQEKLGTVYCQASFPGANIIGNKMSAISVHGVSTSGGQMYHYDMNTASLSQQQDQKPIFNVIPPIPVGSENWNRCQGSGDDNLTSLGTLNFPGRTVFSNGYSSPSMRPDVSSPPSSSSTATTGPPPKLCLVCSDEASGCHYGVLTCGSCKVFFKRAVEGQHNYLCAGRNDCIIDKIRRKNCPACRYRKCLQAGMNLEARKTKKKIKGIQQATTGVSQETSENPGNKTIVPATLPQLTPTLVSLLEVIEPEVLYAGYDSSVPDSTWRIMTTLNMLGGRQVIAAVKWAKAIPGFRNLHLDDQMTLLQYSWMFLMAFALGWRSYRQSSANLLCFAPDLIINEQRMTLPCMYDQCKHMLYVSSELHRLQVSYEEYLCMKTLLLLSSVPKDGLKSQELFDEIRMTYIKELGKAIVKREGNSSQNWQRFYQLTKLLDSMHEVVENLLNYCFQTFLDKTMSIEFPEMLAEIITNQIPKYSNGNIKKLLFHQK
Method: Compound (I) undergoes highly efficient hepatic metabolism to yield the 17-β carboxylic acid (X) as the sole major metabolite in rat and human in vitro systems.
Pharmacological activity was assessed in a functional in vitro assay of glucocorticoid agonist activity which is generally predictive of anti-inflammatory or anti-allergic activity in vivo.
The functional assay was based on that described by K. P. Ray et al., Biochem J. (1997), 328, 707-715. A549 cells stably transfected with a reporter gene containing the NF-κB responsive elements from the ELAM gene promoter coupled to sPAP (secreted alkaline phosphatase) were treated with test compounds at appropriate doses for 1 hour at 37° C. The cells were then stimulated with tumour necrosis factor (TNF, 10 ng/ml) for 16 hours, at which time the amount of alkaline phosphatase produced is measured by a standard colourimetric assay. […]
In a variant of the above method, to monitor these functions, two reporter plasmids have been generated and introduced separately into A549 human lung epithelial cells by transfection. […] After incubation for 1 h 0.5 ng/ml TNFα (R&D Systems) was added and after a further 15 hours at 37° C., the levels of firefly and renilla luciferase were measured using the Packard Firelite kit following the manufacturers' directions. Dose response curves were constructed from which EC50 values were determined.

Structure (SMILES) | reduction of thymus weight [1] | clearance compared with fluticasone propionate [2] | time after dosing up to which quantifiable in plasma [3] | systemic exposure compared with fluticasone propionate ([3]; dry powder delivery to the lungs of anaesthetised pigs) | manner of metabolism [4] | affinity for human lung tissue [5] | bioavailability ([6]; male, Wistar Han, plasma, oral, 0.1 mg/kg, oral 0.1 mg/kg vs IV 0.1 mg/kg) | plasma clearance (in words) ([6]; in vivo) | manner of metabolism [7] | mean absorption time (MAT) [8] | time taken for 90% of lung dose to be absorbed [8] | accumulation within the cell layer compared with fluticasone propionate [9] | flux across the cell layer compared with fluticasone propionate [9] | EC50 [10] | fold less active than the parent compound [11]
C[C@@H]1CC2C3C[C@H](F)C4=CC(=O)C=C[C@]4(C)[C@@]3(F)[C@@H](O)C[C@]2(C)[C@@]1(OC(=O)c1ccco1)C(=O)SCF (stereo partly drawn) [Compound of Formula (I), 6α,9α-Difluoro-17α-[(2-furanylcarbonyl)oxy]-11β-hydroxy-16α-methyl-3-oxo-androsta-1,4-diene-17β-carbothioic acid S-fluoromethyl ester] | 67% | similar | up to 2 hours | markedly reduced systemic exposure; also recorded: significantly lower exposure | metabolised in an identical manner to fluticasone propionate | significantly higher affinity | 0.9% | approaching hepatic blood flow | metabolised in an identical manner to fluticasone propionate | 12 h | 21 h | greater accumulation | reduced flux |  | 
C[C@@H]1CC2C3C[C@H](F)C4=CC(=O)C=C[C@]4(C)[C@@]3(F)[C@@H](O)C[C@]2(C)[C@@]1(OC(=O)c1ccco1)C(=O)O (stereo partly shown) [Metabolite (X)] |  |  |  |  |  |  |  |  |  |  |  |  |  | > 250 nM | > 1000 fold
CCC(=O)O[C@]1(C(=O)SCF)[C@H](C)C[C@H]2[C@@H]3C[C@H](F)C4=CC(=O)C=C[C@]4(C)[C@@]3(F)[C@@H](O)C[C@@]21C [Fluticasone propionate, 6α,9α-Difluoro-17α-(1-oxopropoxy)-11β-hydroxy-16α-methyl-3-oxo-androsta-1,4-diene-17β-carbothioic acid S-fluoromethyl ester, reference compound] | 78% |  | up to 8 hours |  |  |  |  |  |  | 2.1 h | 11 h |  |  |  | 
